US8703961B2, “Thiazole derivatives for the treatment of diseases such as cancer” (Merck Patent GmbH, priority 2009, dated 2014)

Columns and labels:
Assay in all cases: filter binding kinase assay
Assay type in all cases: biochemical
[1] = biological target: T1, KDR (VEGFR) (Homo sapiens, UniProt P35968); details: for IC50: derived from % inhibition at 1 μM
T1 construct: purchased
Method in brief: (§1)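 Radioactivity retained on P81 phosphocellulose filters is the read-out. Before the reaction begins, test substance sits with kinase and substrate for 5 minutes at room temperature. The ATP solution added is 5, 20 or 50 […] according to the kinase, and acid quench ends the reaction.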

[2] = biological target: T2, PDPK1 (PDK1) (Homo sapiens, UniProt O15530); details: for IC50: derived from % inhibition at 1 μM, first PDPK1 line
T2 construct: purchased
T2 sequence (O15530 1-556): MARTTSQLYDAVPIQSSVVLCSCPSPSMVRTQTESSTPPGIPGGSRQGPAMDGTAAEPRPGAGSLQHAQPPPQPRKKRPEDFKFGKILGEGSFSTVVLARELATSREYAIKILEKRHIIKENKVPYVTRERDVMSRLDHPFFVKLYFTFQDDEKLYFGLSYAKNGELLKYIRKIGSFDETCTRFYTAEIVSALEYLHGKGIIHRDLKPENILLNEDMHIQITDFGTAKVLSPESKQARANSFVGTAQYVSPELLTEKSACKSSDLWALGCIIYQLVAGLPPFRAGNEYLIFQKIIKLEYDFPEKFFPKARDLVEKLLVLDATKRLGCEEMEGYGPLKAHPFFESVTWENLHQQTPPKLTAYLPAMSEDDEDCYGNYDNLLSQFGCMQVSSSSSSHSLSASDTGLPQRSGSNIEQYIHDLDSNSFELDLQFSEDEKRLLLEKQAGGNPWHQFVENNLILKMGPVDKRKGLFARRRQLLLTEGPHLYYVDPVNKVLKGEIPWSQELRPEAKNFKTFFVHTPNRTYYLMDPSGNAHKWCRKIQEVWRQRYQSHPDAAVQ
Method in brief: as §1

[3] = biological target: T3, CSNK2A1 (CK2) (Homo sapiens, UniProt P68400); details: for IC50: derived from % inhibition at 1 μM
T3 construct: purchased
Method in brief: as §1

[4] = biological target: T4, CSNK1D (Homo sapiens, UniProt P48730); details: derived from % inhibition at 1 μM
T4 construct: purchased
Method in brief: as §1

[5] = biological target: T5, PAK6 (Homo sapiens, UniProt Q9NQU5); details: derived from % inhibition at 1 μM
T5 construct: purchased
Method in brief: as §1

[6] = biological target: T6, BTK (Homo sapiens, UniProt Q06187); details: derived from % inhibition at 1 μM
T6 construct: purchased
Method in brief: as §1

[7] = biological target: T7, STK11 (Homo sapiens, UniProt Q15831); details: derived from % inhibition at 1 μM
T7 construct: purchased
T7 sequence (Q15831 1-433): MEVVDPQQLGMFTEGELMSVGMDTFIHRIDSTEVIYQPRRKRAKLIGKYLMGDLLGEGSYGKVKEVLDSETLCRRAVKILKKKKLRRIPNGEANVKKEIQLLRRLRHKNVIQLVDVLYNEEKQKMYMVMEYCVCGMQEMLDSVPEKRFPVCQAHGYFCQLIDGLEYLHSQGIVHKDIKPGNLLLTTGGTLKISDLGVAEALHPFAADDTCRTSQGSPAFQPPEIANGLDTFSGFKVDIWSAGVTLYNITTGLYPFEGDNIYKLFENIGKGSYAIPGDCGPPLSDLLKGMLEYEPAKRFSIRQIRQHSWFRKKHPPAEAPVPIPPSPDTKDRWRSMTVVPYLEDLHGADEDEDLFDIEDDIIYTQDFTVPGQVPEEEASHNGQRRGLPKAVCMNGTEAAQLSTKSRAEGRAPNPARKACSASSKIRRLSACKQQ
T7 sequence (Q7RTN6 1-431 partner): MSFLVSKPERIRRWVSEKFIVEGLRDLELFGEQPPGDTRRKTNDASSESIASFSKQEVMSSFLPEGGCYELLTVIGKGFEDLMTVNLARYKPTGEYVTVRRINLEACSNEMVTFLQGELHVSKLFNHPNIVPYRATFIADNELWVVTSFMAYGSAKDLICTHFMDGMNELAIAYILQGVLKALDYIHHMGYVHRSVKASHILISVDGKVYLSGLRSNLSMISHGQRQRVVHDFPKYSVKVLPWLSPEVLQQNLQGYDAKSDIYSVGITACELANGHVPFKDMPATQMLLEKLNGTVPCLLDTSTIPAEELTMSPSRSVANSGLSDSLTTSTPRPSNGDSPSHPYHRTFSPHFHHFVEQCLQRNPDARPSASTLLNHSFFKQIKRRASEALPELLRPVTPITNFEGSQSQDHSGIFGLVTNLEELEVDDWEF
T7 sequence (Q9Y376 1-341 partner): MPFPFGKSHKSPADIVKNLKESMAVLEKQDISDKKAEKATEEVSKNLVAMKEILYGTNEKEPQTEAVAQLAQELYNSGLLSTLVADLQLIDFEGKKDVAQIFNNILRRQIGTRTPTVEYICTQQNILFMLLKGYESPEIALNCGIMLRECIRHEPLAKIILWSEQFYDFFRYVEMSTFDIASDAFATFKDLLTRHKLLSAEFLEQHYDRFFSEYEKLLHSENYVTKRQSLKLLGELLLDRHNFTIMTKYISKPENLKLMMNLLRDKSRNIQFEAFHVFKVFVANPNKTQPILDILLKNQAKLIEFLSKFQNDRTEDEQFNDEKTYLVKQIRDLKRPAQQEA
Method in brief: as §1

[8] = biological target: T8, AKT2 (Homo sapiens, UniProt P31751); details: derived from % inhibition at 1 μM
T8 construct: purchased
Method in brief: as §1

[9] = biological target: T9, EPHA2 (Homo sapiens, UniProt P29317); details: derived from % inhibition at 1 μM
T9 construct: purchased
Method in brief: as §1

[10] = biological target: T10, MARK3 (Homo sapiens, UniProt P27448); details: for IC50: derived from % inhibition at 1 μM
T10 construct: purchased
Method in brief: as §1

[11] = biological target: T11, HIPK3 (Homo sapiens, UniProt Q9H422); details: derived from % inhibition at 1 μM
T11 construct: purchased
Method in brief: as §1

T8 sequence (P31751 whole entry, species assumed): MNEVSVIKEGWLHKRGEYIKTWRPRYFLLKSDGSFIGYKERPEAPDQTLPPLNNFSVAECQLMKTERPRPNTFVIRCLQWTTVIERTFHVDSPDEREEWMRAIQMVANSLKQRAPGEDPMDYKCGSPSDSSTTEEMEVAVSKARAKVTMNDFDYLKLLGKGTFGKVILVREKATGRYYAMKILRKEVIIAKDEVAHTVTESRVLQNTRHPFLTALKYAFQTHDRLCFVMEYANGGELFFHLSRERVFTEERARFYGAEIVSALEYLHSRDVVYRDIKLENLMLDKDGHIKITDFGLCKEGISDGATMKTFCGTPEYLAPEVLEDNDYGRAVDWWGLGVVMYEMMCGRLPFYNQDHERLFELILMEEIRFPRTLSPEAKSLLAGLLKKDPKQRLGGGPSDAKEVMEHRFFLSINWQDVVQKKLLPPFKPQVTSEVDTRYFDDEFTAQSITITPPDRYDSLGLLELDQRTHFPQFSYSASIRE
T4 sequence (P48730 whole entry, species assumed): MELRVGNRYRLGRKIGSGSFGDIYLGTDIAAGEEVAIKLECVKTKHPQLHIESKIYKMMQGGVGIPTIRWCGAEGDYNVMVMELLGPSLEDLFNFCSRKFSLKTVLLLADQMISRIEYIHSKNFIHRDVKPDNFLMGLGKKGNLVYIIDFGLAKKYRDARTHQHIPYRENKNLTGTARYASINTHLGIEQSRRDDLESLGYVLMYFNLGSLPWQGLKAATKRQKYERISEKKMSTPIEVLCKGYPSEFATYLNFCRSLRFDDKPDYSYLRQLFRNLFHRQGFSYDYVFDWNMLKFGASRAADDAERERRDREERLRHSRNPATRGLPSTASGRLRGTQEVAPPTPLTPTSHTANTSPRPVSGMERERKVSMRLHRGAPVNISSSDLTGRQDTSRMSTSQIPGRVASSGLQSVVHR
T6 sequence (Q06187 whole entry, species assumed): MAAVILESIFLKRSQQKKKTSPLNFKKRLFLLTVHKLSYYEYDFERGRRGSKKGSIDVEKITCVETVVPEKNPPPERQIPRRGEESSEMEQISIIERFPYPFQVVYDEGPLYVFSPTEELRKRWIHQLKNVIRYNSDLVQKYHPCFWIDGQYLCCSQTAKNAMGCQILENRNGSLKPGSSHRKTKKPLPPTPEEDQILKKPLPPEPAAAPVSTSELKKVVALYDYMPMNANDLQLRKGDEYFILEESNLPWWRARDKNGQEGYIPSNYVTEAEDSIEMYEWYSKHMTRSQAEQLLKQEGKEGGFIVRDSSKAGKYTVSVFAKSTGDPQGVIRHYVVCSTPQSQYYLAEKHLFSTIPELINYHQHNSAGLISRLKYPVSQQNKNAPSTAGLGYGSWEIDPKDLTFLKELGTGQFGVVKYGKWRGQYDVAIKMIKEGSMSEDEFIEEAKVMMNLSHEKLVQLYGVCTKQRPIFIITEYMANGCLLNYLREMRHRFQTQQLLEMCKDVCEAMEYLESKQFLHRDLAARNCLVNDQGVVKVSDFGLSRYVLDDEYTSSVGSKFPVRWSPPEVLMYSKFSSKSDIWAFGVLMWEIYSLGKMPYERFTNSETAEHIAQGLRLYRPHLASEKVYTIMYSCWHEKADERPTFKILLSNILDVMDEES
T3 sequence (P68400 whole entry, species assumed): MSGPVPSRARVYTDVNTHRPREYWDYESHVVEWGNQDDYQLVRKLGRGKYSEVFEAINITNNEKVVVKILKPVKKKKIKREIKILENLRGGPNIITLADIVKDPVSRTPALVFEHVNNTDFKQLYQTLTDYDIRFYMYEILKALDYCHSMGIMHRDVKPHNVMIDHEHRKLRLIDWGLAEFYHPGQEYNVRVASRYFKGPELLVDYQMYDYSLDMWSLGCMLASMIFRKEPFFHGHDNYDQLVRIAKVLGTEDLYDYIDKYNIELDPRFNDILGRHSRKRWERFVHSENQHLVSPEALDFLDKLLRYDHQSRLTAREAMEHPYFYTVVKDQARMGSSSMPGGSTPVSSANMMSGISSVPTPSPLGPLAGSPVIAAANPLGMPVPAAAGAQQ
T5 sequence (Q9NQU5 whole entry, species assumed): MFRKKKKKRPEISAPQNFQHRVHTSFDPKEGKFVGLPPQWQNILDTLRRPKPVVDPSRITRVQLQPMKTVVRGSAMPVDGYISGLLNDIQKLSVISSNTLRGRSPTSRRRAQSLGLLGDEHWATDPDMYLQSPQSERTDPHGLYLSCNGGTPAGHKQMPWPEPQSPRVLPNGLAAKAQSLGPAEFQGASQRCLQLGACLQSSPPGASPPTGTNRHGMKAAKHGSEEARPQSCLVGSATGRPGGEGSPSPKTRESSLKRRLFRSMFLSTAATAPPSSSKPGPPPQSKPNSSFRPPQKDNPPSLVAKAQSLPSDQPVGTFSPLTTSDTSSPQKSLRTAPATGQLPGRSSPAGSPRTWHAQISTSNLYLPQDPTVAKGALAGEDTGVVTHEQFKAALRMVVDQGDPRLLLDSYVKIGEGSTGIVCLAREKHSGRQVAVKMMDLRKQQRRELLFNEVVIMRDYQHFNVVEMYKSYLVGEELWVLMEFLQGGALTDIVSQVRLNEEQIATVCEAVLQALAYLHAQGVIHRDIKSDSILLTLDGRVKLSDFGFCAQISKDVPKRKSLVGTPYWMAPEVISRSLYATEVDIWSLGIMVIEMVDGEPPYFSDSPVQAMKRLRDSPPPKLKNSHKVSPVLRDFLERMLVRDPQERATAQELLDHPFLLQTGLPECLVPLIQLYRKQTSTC
T9 sequence (P29317 24-976, species assumed): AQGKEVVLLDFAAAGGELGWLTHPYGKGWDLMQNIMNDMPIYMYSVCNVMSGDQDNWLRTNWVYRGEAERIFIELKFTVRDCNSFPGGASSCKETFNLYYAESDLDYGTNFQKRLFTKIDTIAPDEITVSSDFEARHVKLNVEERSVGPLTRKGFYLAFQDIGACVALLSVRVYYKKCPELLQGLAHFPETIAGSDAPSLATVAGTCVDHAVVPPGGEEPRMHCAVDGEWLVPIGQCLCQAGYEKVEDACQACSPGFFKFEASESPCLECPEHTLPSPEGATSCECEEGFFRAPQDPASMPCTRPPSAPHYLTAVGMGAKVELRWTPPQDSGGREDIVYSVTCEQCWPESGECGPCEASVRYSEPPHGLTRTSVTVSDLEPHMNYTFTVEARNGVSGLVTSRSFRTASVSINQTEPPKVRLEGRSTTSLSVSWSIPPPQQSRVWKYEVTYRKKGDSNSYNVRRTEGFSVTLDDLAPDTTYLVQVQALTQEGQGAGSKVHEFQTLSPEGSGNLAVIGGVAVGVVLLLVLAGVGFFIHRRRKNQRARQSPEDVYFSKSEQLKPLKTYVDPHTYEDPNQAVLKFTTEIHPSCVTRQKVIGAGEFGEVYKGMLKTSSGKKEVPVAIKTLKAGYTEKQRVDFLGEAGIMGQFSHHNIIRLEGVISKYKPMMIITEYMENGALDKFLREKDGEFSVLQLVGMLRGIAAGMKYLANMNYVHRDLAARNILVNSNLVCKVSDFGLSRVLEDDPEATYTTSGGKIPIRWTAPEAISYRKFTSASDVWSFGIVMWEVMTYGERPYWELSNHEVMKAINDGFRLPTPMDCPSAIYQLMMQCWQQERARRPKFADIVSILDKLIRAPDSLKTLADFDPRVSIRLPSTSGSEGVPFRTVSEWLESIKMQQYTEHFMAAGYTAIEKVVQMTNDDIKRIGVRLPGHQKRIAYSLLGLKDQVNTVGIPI
T10 sequence (P27448 whole entry, species assumed): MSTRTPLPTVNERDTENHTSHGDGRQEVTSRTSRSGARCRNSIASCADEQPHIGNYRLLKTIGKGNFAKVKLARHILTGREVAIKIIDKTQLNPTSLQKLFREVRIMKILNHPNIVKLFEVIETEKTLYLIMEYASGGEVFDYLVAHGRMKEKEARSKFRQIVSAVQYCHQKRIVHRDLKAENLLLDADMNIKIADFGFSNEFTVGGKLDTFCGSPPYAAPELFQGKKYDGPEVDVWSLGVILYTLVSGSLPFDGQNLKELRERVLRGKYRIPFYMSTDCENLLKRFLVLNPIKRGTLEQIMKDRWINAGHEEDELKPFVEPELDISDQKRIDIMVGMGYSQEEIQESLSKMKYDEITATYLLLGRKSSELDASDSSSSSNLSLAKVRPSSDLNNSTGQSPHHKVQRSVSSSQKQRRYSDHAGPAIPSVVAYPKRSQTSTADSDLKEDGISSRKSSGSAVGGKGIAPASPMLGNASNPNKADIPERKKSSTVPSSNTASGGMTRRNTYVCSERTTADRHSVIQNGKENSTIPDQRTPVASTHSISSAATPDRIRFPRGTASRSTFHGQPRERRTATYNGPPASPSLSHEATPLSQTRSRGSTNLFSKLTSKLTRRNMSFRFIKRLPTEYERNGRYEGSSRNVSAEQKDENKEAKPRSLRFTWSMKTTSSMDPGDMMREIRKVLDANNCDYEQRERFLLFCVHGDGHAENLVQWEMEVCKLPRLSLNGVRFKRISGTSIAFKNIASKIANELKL

SMILES	IC50 [1]	IC50 [2]	remaining activity at 1 µM ([3]; read-out: residual kinase activity CK2)	IC50 [4]	IC50 [5]	IC50 [6]	IC50 [7]	IC50 [8]	IC50 [9]	IC50 [10]	IC50 [11]	remaining activity at 1 µM ([1]; read-out: residual kinase activity VEGFR)	remaining activity at 1 µM ([2]; read-out: residual kinase activity PDK1)	IC50 [3]	remaining activity at 1 µM ([10]; read-out: residual kinase activity MARK3)
c1ccc(Cc2c[nH]c3ncsc23)cc1 [Compound A7, 6-benzyl-4H-pyrrolo[2,3-d]thiazole]	1 to 10 µM	> 1 µM	53%	1 to 10 µM	> 1 µM	10 to 100 µM	10 to 100 µM	> 1 µM	10 to 100 µM	1 to 10 µM	1 to 10 µM	–	–	–	–
Nc1ncsc1C#Cc1cnc2[nH]ccc2c1 [Compound A22, 5-(1H-pyrrolo[2,3-b]pyridin-5-ylethynyl)thiazol-4-ylamine]	0.01 to 1 µM	1 to 10 µM	–	10 to 100 µM	10 to 100 µM	10 to 100 µM	> 1 µM	> 1 µM	> 1 µM	0.01 to 1 µM	1 to 10 µM	11%	53%	> 1 µM	15%
Nc1ncsc1C#Cc1cccc(O)c1 [Compound A27, 3-(4-aminothiazol-5-ylethynyl)phenol]	1 to 10 µM	> 1 µM	–	1 to 10 µM	10 to 100 µM	10 to 100 µM	> 1 µM	1 to 10 µM	> 1 µM	10 to 100 µM	1 to 10 µM	–	–	> 1 µM	–
CC(C)(C)OC(=O)Nc1ncsc1C#CCN1C(=O)c2ccccc2C1=O [Compound A26, tert-butyl{5-[3-(1,3-dioxo-1,3-dihydroisoindol-2-yl)prop-1-ynyl]-thiazol-4-yl}carbamate]	> 1 µM	1 to 10 µM	–	> 1 µM	> 1 µM	> 1 µM	10 to 100 µM	> 1 µM	> 1 µM	1 to 10 µM	10 to 100 µM	–	–	10 to 100 µM	–
CC(C)(C)OC(=O)Nc1nc(-c2ccncc2)sc1C#CCN1CCOCC1 [Compound A25, tert-butyl[5-(3-morpholin-4-ylprop-1-ynyl)-2-pyridin-4-ylthiazol-4-yl]-carbamate]	> 1 µM	> 1 µM	–	> 1 µM	10 to 100 µM	10 to 100 µM	> 1 µM	1 to 10 µM	> 1 µM	> 1 µM	10 to 100 µM	–	–	> 1 µM	–
